Like-named read-outs stand apart in the source and are kept apart here.

Assay [1] relates to nAChR mediating nicotine-evoked [^3H]DA release (α3β2* receptor subtype). Type of assay: cell-based, rat. Particulars: read-out: IC50, S-(−)-nicotine-evoked [^3H]DA release. Here is the method:
Slices were rinsed with 15 mL of fresh buffer and incubated for an additional 30 minutes in fresh buffer containing 0.1 μM [^3H]DA (6 slices/3 ml). Subsequently, slices were rinsed with 15 ml of fresh buffer and transferred to a glass superfusion chamber.
Radioactivity in the superfusate and tissue samples was determined by liquid scintillation spectroscopy. […] Basal [^3H]outflow was calculated from the average of the tritium collected in the two five minute samples just before addition of the bis-alkyl pyridino analog. […] [^3H]Overflow was calculated by subtracting the [^3H]outflow during an equivalent period of prestimulation from the values in samples collected during and after drug exposure. Inasmuch as the radiolabelled compounds were not separated and identified, the tritium collected in superfusate is referred to as either [^3H]outflow or [^3H]overflow, rather than as [^3H]DA.

The target of assay [2] is T1, Rat Striatal Nicotinic Acetylcholine Receptors ([^3H]nicotine binding sites) (Rattus norvegicus, UniProt P09483+P12390).
T1 construct: Striata from two rats were dissected, pooled, and homogenized; from tissue; host or cells: rat striatum membranes
T1 sequence (P09483 31-630): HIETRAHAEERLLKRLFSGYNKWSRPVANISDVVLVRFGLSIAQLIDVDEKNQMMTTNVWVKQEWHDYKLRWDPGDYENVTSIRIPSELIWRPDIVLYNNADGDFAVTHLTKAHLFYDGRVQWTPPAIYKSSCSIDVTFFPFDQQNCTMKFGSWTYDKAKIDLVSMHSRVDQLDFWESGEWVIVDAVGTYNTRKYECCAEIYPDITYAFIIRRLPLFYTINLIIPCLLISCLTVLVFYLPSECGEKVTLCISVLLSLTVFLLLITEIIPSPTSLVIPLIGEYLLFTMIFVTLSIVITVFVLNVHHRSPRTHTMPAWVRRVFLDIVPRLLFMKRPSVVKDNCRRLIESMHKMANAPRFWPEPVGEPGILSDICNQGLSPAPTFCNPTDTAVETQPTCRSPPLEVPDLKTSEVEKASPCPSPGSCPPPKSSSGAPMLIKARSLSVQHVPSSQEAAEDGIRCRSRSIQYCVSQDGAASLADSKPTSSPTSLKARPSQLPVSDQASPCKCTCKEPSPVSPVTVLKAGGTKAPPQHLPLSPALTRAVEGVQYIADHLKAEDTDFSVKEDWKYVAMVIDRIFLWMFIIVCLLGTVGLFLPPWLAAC
T1 sequence (P12390 25-500): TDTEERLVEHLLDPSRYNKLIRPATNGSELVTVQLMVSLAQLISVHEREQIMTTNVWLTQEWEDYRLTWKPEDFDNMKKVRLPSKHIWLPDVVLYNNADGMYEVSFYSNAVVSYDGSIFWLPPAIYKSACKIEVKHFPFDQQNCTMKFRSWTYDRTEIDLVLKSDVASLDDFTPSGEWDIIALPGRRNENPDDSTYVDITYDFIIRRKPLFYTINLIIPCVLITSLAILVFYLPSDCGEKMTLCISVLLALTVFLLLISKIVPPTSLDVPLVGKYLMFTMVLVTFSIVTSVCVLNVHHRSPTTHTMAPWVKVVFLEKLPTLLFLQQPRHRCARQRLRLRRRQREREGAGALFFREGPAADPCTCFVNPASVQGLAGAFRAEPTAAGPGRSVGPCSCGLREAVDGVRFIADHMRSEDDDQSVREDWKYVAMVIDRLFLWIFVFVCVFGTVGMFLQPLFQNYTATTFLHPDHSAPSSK
Description: biochemical. Particulars: read-out: Ki, specific binding of [^3H]-nicotine. Here is the method:
Striata from two rats were dissected, pooled, and homogenized with a Tekmar polytron in 10 volumes of ice-cold modified Krebs-HEPES buffer (20 mM HEPES, 118 mM NaCl, 4.8 mM KCl, 2.5 mM CaCl2, 1.2 mM MgSO4, adjusted to pH 7.5). The homogenates were incubated at 37° C. for five minutes and centrifuged at 15,000 g for 20 minutes. The pellet was resuspended in ten volumes of ice-cold MilliQ water, incubated for five minutes at 37° C., and centrifuged at 15,000 g for 20 minutes The second pellet was then resuspended in ten volumes of fresh ice-cold 10% Krebs-HEPES buffer, incubated at 37° C., and centrifuged at 15,000 g for 20 minutes. The latter sequence of resuspension, incubation, and centrifugation was repeated. The pellet was frozen under fresh 10% Krebs-HEPES buffer and stored at −40° C. until assay. Upon assay, the pellet was resuspended in the Krebs-HEPES buffer, incubated at 37° C. for five minutes, and centrifuged at 15,000 g for 20 minutes. The final pellet was resuspended in 3.6 ml ice-cold MilliQ water which provided for approximately 200 μg protein per 100 μl aliquot. Competition assays were performed in duplicate in a final volume of 200 μl Krebs-HEPES buffer containing […] Tris buffer (pH 7.5 at 4° C.). […] After a 90 minute incubation at 4° C., reactions were terminated by dilution of the samples with 3 ml of ice-cold Krebs-HEPES buffer followed immediately by filtration through Whatman GF/B glass fiber filters (presoaked in 0.5% polyethyleneimine) using a Brandel Cell Harvester. Filters were rinsed three times with 3 ml of ice-cold Krebs-HEPES buffer, transferred to scintillation vials, and 5 ml scintillation cocktail (Research Products International Corp., Mt. Prospect, Ill.) added. […] Binding parameters were determined using the weighted, least squares non-linear regression.

Assay [3] addresses T2, α7-type neuronal nicotinic acetylcholine receptors (Rattus norvegicus, UniProt Q05941).
T2 construct: Rat brain was dissected into the whole brain tissue without cortex, striatum and cerebellum; from tissue; host or cells: rat brain (without cortex, striatum, cerebellum) membranes
Description: biochemical. Particulars: read-out: Ki, [^3H]MLA binding.

In assay [4] the target is T2, α7-type neuronal nicotinic acetylcholine receptors. In kind it is binding. Particulars: read-out: Ki, [^3H]MLA binding. As to the method:
Rat brain was dissected into the whole brain tissue without cortex, striatum and cerebellum and was frozen in liquid nitrogen and stored at −70° C. until use.
The brain tissue was homogenized with a Tekmar Polytron (setting 40) in 20 volumes of ice-cold hypotonic buffer (2 mM HEPES, 14.4 mM NaCl, 0.15 mM KCl, 0.2 mM CaCl2 and 0.1 mM MgSO4, pH=7.5). The homogenate was incubated at 37° C. for ten minutes and centrifuged at 25,000×g for 15 minutes at […] The pellet was washed three times more by resuspension in the 20 volumes of the same buffer and centrifugation at the above parameters. The final pellet was stored at −20° C. under 4.6 ml of the incubation buffer and was suspended just before the incubation with radioligand.
[^3H]MLA (25.4 Ci/mmol) was purchased from Tocris Cookson Ltd., Bristol, U.K. Binding was performed in duplicate, in a final volume of 250 μl of the incubation medium, containing 20 mM HEPES, 144 mM NaCl, 1.5 mM KCl, 2 mM CaCl2, 1 mM MgSO4 and 0.05% BSA, pH=7.5. Reaction was initiated by the addition of 100 μl of membrane suspension to the samples containing a desired concentration of test compounds and […] [^3H] MLA (final concentration) and incubated for 2 hours at room temperature. […] The binding reaction was terminated by dilution of samples with 3 ml of ice-cold incubation buffer followed by immediate filtration through presoaked in 0.5% polyethylenimine glass fiber filters (S&S, grade #32) using a Brandel harvester system. Filters were rinsed three times with 3 ml of ice-cold buffer, transferred to scintillation-vials and 4 ml of scintillation cocktail was added. Protein was measured using the Bradford dye-binding procedure with bovine serum albumin as the standard.

In assay [5] the test system is nAChR subtypes mediating nicotine-evoked [^3H]-dopamine overflow.
Description: [^3H]-Dopamine overflow from superfused striatal slices. […] Striatal coronal slices (500 μm, 4-6 mg) were obtained and incubated for 30 minutes in Krebs' buffer (in mM: 118 NaCl, 4.7 KCl, 1.2 MgCl2, 1 NaH2PO4, 1.3 CaCl2, 11.1 glucose, 25 NaHCO3, 0.11 L-ascorbic acid and 0.004 disodium EDTA, pH 7.4, saturated with 95% O2/5% CO2) in a metabolic shaker at 34° C. Slices were incubated with 0.1 μM (final concentration) of [^3H]-dopamine during the latter 30 minutes of the 60-minute incubation period. Each slice was transferred to a glass superfusion chamber maintained at 34° C. and superfused (1 ml/min) with Krebs' buffer containing nomifensine (10 μM) and pargyline (10 μM) to inhibit [^3H]-dopamine reuptake after release into the extracellular space, ensuring that [^3H]-overflow primarily represented [^3H]-dopamine. Sample collection (5-minute; 5 mL) began after 60 minutes of superfusion. […] At the end of the experiment, each slice was solubilized, and the [^3H]-content of the tissue determined. Release during each minute was normalized for total tissue [^3H]-content. Analog-induced intrinsic activity and inhibitory activity were determined using slices from the same rat (repeated-measures design).
The amount of [^3H] in each sample was calculated by dividing the total [^3H] collected in each sample by the total in the tissue at the time of sample collection (defined as fractional release). […] Data were analyzed by weighted, least squares regression analysis of the sigmoidal concentration-effect curves to obtain EC50 and IC50 values.
Striatal slices (500 μm, 4-6 mg) were incubated for 30 minutes in Krebs' buffer (in mM: 118 NaCl, 4.7 KCl, 1.2 MgCl2, 1 NaH2PO4, 1.3 CaCl2, 11.1 glucose, 25 NaHCO3, 0.11 L-ascorbic acid and 0.004 disodium EDTA, pH 7.4, saturated with 95% O2/5% CO2) in a metabolic shaker at 34° C. Slices were incubated with 0.1 μM (final concentration) [^3H]DA during the latter 30 minutes of the 60-minute incubation period. Each slice was transferred to a glass superfusion chamber maintained at 34° C. and superfused (1 ml/min) with Krebs' buffer containing nomifensine (10 μM) and pargyline (10 μM) to inhibit [^3H]DA reuptake and metabolism, respectively, after release into the extracellular space, ensuring that [^3H]overflow primarily represents [^3H]DA. Sample collection (5-minute; 5 ml) began after 60 minutes of superfusion. […] Thus, the ability of these analogs to elicit intrinsic activity (evoke [^3H]DA overflow) was determined. At the end of the experiment, each slice was solubilized and [^3H]content of the tissue determined. Release during each minute was normalized for total [^3H]content of the slice. Analog-induced intrinsic activity and inhibitory activity were determined using slices from the same rat (repeated-measures design).
Fractional release was calculated by dividing the total tritium collected in each sample by the total tritium in the tissue at the time of sample collection. […] Typically, data were analyzed by weighted, least squares regression analysis of sigmoidal concentration-effect curves to obtain EC50 and IC50 values.
Another assay has as its target α4β2* nAChRs (Rattus norvegicus, UniProt P09483+P12390).
[6] abbreviates: rat striatal slices, nicotine 10 μM.
Setting [7] is: rat striatal membranes, 3 nM [^3H]-nicotine.
The mark [8] stands for this setting: rat brain membranes, 2.5 nM [^3H]-MLA.
Where [9] appears, read: read-out: Nicotine-evoked [^3H]DA Overflow IC50, Table 5, mean (95% confidence interval).
Setting [10] is: read-out: Nicotine-evoked [^3H]DA Overflow IC50, Table 6, mean (standard error).

T2 sequence (Q05941 23-502): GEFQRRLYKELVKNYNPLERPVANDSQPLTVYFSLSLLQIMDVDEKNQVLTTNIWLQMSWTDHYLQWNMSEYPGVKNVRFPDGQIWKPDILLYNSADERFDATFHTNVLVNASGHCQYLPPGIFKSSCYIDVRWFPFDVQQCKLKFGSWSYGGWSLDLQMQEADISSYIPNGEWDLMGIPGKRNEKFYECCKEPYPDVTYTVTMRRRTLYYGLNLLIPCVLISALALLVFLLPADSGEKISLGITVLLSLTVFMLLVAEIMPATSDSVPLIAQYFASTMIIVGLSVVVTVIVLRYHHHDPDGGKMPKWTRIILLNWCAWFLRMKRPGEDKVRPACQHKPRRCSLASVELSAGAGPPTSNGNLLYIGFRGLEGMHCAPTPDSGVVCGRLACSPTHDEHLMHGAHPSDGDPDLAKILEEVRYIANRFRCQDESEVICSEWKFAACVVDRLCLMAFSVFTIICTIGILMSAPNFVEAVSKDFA
Sequence of α4β2* nAChRs (P09483 31-630): as the sequence (P09483 31-630) above
Sequence of α4β2* nAChRs (P12390 25-500): as the sequence (P12390 25-500) above
Description for α4β2* nAChRs: Whole brain, excluding cortex and cerebellum, was homogenized in 20 ml of ice-cold buffer, containing (in mM): 2 HEPES, 11.8 NaCl, 0.48 KCl, 0.25 CaCl2 and 0.12 MgSO4, pH 7.5. Homogenate was centrifuged (25,000 g, 15 minutes, 4° C.). Pellets were resuspended in 20 ml of buffer and incubated at 37° C., for ten minutes, cooled to 4° C. and centrifuged (25,000 g, 15 minutes, 4° C.). Pellets were resuspended and centrifuged using the same conditions. Final pellets were stored in assay buffer, containing (in mM): 20 HEPES, 118 NaCl, 4.8 KCl, 2.5 CaCl2, and 1.2 MgSO4) pH 7.5 at −70° C. Upon use, final pellets were resuspended in ˜20 ml assay buffer. […] Control was in the absence of analog. […] Incubations proceeded for 60 minutes at room temperature using 96-well plates and were terminated by harvesting on Unifilter-96 GF/B filter plates presoaked in 0.5% polyethylenimine, using a Packard FilterMate harvester.
After washing five times with 350 μl ice-cold assay buffer, filter plates were dried (60 minutes, 49° C.), bottom-sealed, and filled with Packard's MicroScint 20 cocktail (40 μl/well). After 60 minutes, filter plates were top-sealed, and radioactivity determined using a Packard TopCount. Protein concentrations were determined using bovine serum albumin as the standard.
Whole brain was homogenized in 20 ml of ice-cold buffer (in mM: 2 HEPES, 11.8 NaCl, 0.48 KCl, 0.25 CaCl2, and 0.12 MgSO4, pH 7.5). Homogenates were centrifuged (25,000 g, 15 minutes, 4° C.). Pellets were resuspended in 20 ml of buffer and incubated at 37° C., for 10 minutes, cooled to 4° C. and centrifuged (25,000 g, 15 minutes, 4° C.). Pellets were resuspended and centrifuged again using the same conditions. Final pellets were stored at −70° C. in assay buffer (in mM: 20 HEPES, 118 NaCl, 4.8 KCl, 2.5 CaCl2, and 1.2 MgSO4, pH 7.5). Upon use, final pellets were resuspended in ˜20 ml assay buffer. […] Control was in the absence of analog. […] Incubation proceeded for 60 minutes at room temperature using 96-well plates and was terminated by harvesting on Unifilter-96 GF/B filter plates, presoaked in 0.5% polyethylenimine, using a Packard FiterMate harvester. After washing 5× with 350 μl ice-cold assay buffer, filter plates were dried (60 minutes, 49° C.), bottom-sealed, and filled with Packard's MicroScint 20 cocktail (40 μl/well). After 60 minutes, filter plates were top-sealed, and radioactivity determined. Protein concentration was determined using BSA as the standard.

Turning to `c1cc[n+](CCCCCCCCC[n+]2ccccc2)cc1` [bPNB, N,N′-Nonane-1,9-diyl-bis-pyridinium Dibromide], in assay [1] (setting [6]), the IC50 was above 100 µM. The Ki (in general, a dissociation constant, usually derived from enzyme kinetics or from competition with a known ligand) in assay [2] (setting [7]) worked out at 24.1 µM.
Regarding `c1ccc2c(c1)ccc[n+]2CCCCCCCCCC[n+]1cccc2ccccc21` [bQDI, N,N′-Decane-1,10-diyl-bis-quinolinium Diiodide], the IC50 in assay [1] (setting [6]) stood at 8.99 µM. Moreover, the Ki in assay [3] (setting [8]) stood at 7.32 µM.
As to `CN1CCC[C@H]1c1ccc[n+](CCCCCCCCCCC[n+]2cccc([C@@H]3CCCN3C)c2)c1` [bNUB, N,N′-Undecane-1,11-diyl-bis-nicotinium Dibromide], in assay [1] (setting [6]), the IC50 is above 100 µM. Also, in assay [2] (setting [7]), the Ki was determined as 0.37 µM.
The corresponding values for `c1cc[n+](CCCCCCCCCC[n+]2ccccc2)cc1` [bPDI, N,N′-Decane-1,10-diyl-bis-pyridinium Diiodide] are above 1 µM and 18.6 µM.
α-Bungarotoxin [reference compound]: the Ki in assay [4] stood at 0.0286 ± 0.0054 µM.
For the compound `CCCCCCCCCCCC[n+]1ccccc1` [NDDPI], the IC50 in assay [5] (setting [9]) is 0.26 µM.
As to `CN1CCC[C@H]1c1ccc[n+](CCCCCC[n+]2cccc([C@@H]3CCCN3C)c2)c1` [bNHxI, N,N′-Hexane-1,6-diyl-bis-nicotinium Diiodide], the IC50 in assay [1] (setting [6]) is above 100 µM.
As for `c1ccc2c(c1)ccc[n+]2CCCCCCCCC[n+]1cccc2ccccc21` [bQNB, N,N′-Nonane-1,9-diyl-bis-quinolinium Dibromide], in assay [1] (setting [6]), the IC50 came out at 17.3 µM. The values for the Ki in assay [3] (setting [8]) and in assay [2] (setting [7]) were 3.4 µM and 20.1 µM, respectively.
`c1cc[n+](CCCCC[n+]2ccccc2)cc1` [bPPeI, N,N′-Pentane-1,5-diyl-bis-pyridinium Diiodide]: the IC50 in assay [1] (setting [6]) is above 100 µM. For the same compound, the Ki in assay [2] (setting [7]) is above 100 µM.
`c1ccc2c(c1)ccc[n+]2CCCCCCCCCCC[n+]1cccc2ccccc21` [bQUB, N,N′-Undecane-1,11-diyl-bis-quinolinium Dibromide]: in assay [1] (setting [6]), the IC50 worked out at 12 µM. In addition, the results for the inhibition constant (Ki) in assay [3] (setting [8]) and in assay [2] (setting [7]) were 2.44 µM and 38.3 µM, respectively.
For `c1ccc2c[n+](CCCCCCCCC[n+]3ccc4ccccc4c3)ccc2c1` [bIQNB, N,N′-Nonane-1,9-diyl-bis-isoquinolinium Dibromide] the same measures were 1.61 µM, 13.1 µM and above 100 µM.
As for `c1cc[n+](CCCCCCCCCCC[n+]2ccccc2)cc1` [bPUB, N,N′-Undecane-1,11′-diyl-bis-pyridinium Dibromide], the IC50 in assay [1] (setting [6]) is above 100 µM. Besides, the inhibition constant (Ki) in assay [3] was 50.2 µM; in assay [2] (setting [7]), 14.4 µM.
Consider `CCCCCCCCCCC[n+]1cccc2c1CCC1CCN(C)C21` (stereo not shown) [BCU], for which the IC50 in assay [5] (setting [10]) worked out at 0.04 µM.
Regarding `c1ccc2c[n+](CCCCCCCC[n+]3ccc4ccccc4c3)ccc2c1` [bIQOI, N,N′-Octane-1,8-diyl-bis-isoquinolinium Diiodide], in assay [1] (setting [6]), the IC50 stood at 51.9 µM. The inhibitory constant (Ki) in assay [3] (setting [8]) is 8.55 µM; in assay [2] (setting [7]), above 100 µM.
In the case of `CO[C@H]1CC=C2CCN3CCC4=C(CC(=O)OC4)[C@]23C1` [DHβE, dihydro-β-erthyroidine, reference compound], the IC50 in assay [1] turned out to be 1 µM. Moreover, the Ki in assay [2] is 0.15 µM.
As for `c1ccc2c(c1)ccc[n+]2CCCCCCCC[n+]1cccc2ccccc21` [bQOI, N,N′-Octane-1,8-diyl-bis-quinolinium Diiodide], the IC50 in assay [1] (setting [6]) was 10.7 µM. In assay [3] (setting [8]), the Ki stood at 2.01 µM.
The corresponding values for `c1ccc2c[n+](CCCCCCCCCC[n+]3ccc4ccccc4c3)ccc2c1` [bIQDI, N,N′-Decane-1,10-diyl-bis-isoquinolinium Diiodide] are 2.62 µM and 5.5 µM.
`CCCCCCCCCCCC[n+]1cccc(C2CCCN2C)c1` (stereo not shown) [NDDNI]: in assay [5], the “potency relative to DHβE as inhibitor of nAChRs mediating nicotine-evoked dopamine release” value is given as “at least two orders of magnitude more potent”. For the same compound, in assay [5] (read-out: IC50, inhibition of nicotine-evoked [^3H]dopamine release/overflow), the IC50 was 0.009 µM. For the same compound, affinity at α4β2* nAChRs was put at a Ki of 0.14 µM.
As for `CCCCCCCCCCCCCCCCCCCC[n+]1ccccc1` [NEcPB], in assay [5] (setting [9]), the IC50 stood at 0.12 µM.
Turning to `CN1CCCC1c1ccc[n+](CCCCCCCCCC[n+]2cccc(C3CCCN3C)c2)c1` (stereo not shown) [bNDI, N,N′-Decane-1,10-diyl-bis-nicotinium Diiodide], in assay [1] (setting [6]), the IC50 was above 100 µM. Further, the Ki in assay [3] (setting [8]) is above 100 µM; in assay [2] (setting [7]), 0.28 µM.
As for `c1cc[n+](CCCCCCCC[n+]2ccccc2)cc1` [bPOI, N,N′-Octane-1,8-diyl-bis-pyridinium Diiodide], the IC50 in assay [1] (setting [6]) was above 1 µM. In addition, the Ki in assay [2] (setting [7]) turned out to be 33.9 µM.
Consider `CCCCCCCCCCCCCCC[n+]1ccccc1` [NPDPB], for which the IC50 in assay [5] (setting [9]) came to 0.32 µM. Further, on α4β2* nAChRs (read-out: [^3H]Nicotine Binding Ki, Table 5, mean (95% confidence interval)), the Ki was 38 µM.
Consider `CCCCCCCC[n+]1cccc(C)c1` [NOPiI], for which, in assay [5] (read-out: Nicotine-evoked [^3H]DA Overflow IC50, Table 9, mean (standard error)), the IC50 was found to be 1 µM.
`CCCCCCCCCCCC[n+]1ccc2c(c1)[C@@H]1[C@H](CC2)CCN1C` [ACDD]: the IC50 in assay [5] (setting [10]) turned out to be 0.22 µM.
For the compound `CN1CCC[C@H]1c1ccc[n+](CCCCCCCC[n+]2cccc([C@@H]3CCCN3C)c2)c1` [bNOI, N,N′-Octane-1,8-diyl-bis-nicotinium Diiodide], in assay [1] (setting [6]), the IC50 was 19.1 µM. In assay [2] (setting [7]), the Ki was found to be 1.5 µM.
For the compound `c1cc[n+](CCCCCC[n+]2ccccc2)cc1` [bPHxI, N,N′-Hexane-1,6-diyl-bis-pyridinium Diiodide], the IC50 in assay [1] (setting [6]) was above 100 µM. Also, the Ki in assay [2] (setting [7]) was found to be 97.8 µM.
Regarding `CCCCCCCCC[n+]1cccc2c1CCC1CCN(C)C21` (stereo not shown) [BCN], the IC50 in assay [5] (setting [10]) was 0.31 µM.
Take `c1ccc2c[n+](CCCCCCCCCCC[n+]3ccc4ccccc4c3)ccc2c1` [bIQUB, N,N′-Undecane-1,11-diyl-bis-isoquinolinium Dibromide]: in assay [1] (setting [6]), the IC50 worked out at 0.49 µM. In addition, the Ki is 24.1 µM in assay [3] (setting [8]) and 9.02 µM in assay [2] (setting [7]).
In the case of `CN1CCC[C@H]1c1ccc[n+](CCCCCCCCC[n+]2cccc([C@@H]3CCCN3C)c2)c1` [bNNB, N,N′-Nonane-1,9-diyl-bis-nicotinium Dibromide], the IC50 in assay [1] (setting [6]) is above 100 µM. The Ki in assay [2] (setting [7]) is 4.31 µM.

Values taken from patent publication US20080287490A1, “Bis-pyridino containing compounds for the use in the treatment of CNS pathologies” (UNIVERSITY OF KENTUCKY RESEARCH FOUNDATION, priority 2005, published 2008).
